Assay results reported in paper PMC4745926, “Absorption, Metabolism, and Excretion by Freely Moving Rats of 3,4-DHPEA-EDA and Related Polyphenols from Olive Fruits (Olea europaea)” (Journal of Nutrition and Metabolism, 2016).
Values joined by “and” are separate entries in the source; they are usually repeats but may differ in a detail not shown here. Equal entries are not always repeated. “Also recorded” adds a separate entry of the source.

Experiments:
[1] = Urinary excretion after oral administration; assay type: in vivo, Wistar ST rats
Description: (§1) SPF Wistar ST rats (6 weeks of age, male, 180 ± 20 g of body weight) were purchased from Japan SLC Inc. (Hamamatsu, Japan). The rats were housed in an air-conditioned room at 22 ± 2°C under cycles of 12 hours dark and 12 hours light and given free access to a commercial diet and water for a week. The rats were then fasted for over 16 hours before the experiments. The present study was approved by the Animal Care and Use Committee at Kagawa University, and the rat treatment conformed to the Rules of Animal Experiments at Kagawa University. 3,4-[…] (300 mg/kg body weight; 936.51 μmol/kg) dissolved in 50% polyethylene glycol aqueous solution was administered orally via a stomach tube to the portal vein cannulated rats. Blood samples (450 μL) were then collected using a heparinized syringe attached to the cannula before administration and 5, 15, 30, 60, 120, and 240 min after administration. Urine was also collected before administration and 0 to 2 h and 2 to 4 h after administration. For intravenous administration, 3,4-[…] (10 mg/kg; 31.22 μmol/kg) was injected into the jugular vein, and blood (450 μL) was collected using a heparinized syringe before administration and 5, 15, 30, 60, 120, and 240 min after administration via the jugular vein cannula. The blood (450 μL) collected was immediately cooled on ice and centrifuged at 15,000 rpm for 5 min at 4°C to obtain over 200 μL plasma. Urine was also collected before administration and 0 to 2 h and 2 to 4 h after administration. Bile was collected via the bile duct cannula before administration and 0 to 2 h and 2 to 4 h after intravenous administration. The collected plasma, urine, and bile were immediately stored in an ice box until further analyses. HT (oral administration: 100 mg/kg; 648.66 μmol/kg, intravenous administration: 10 mg/kg; 64.87 μmol/kg) and Ole (oral administration: 300 mg/kg; 555.02 μmol/kg, intravenous administration: 10 mg/kg; 18.50 μmol/kg) were investigated using the same method as described above. Metabolites were deconjugated by using β-glucuronidase (500 U) and sulfatase (50 U) in 50 μL 625 mM MOPS (pH 6.8), which was added to 200 μL of plasma, urine, or bile. The mixture was incubated for 45 min at 37°C and subjected to extraction using QuEChERS [33]. […] Shimadzu, Kyoto, Japan) equipped with a Shim-pack XR-ODS column (3.0 mm I.D. × 100 mm; Shimadzu, Kyoto, Japan) at 40°C with a mobile phase of 0.5% TFA-1% acetonitrile aqueous solution (A) and 0.5% TFA-75% acetonitrile aqueous solution (B). The elution conditions are described as follows: isocratic elution of 0% B was maintained for 4.0 min; linear gradient 0 to 4% B, 4.0-4.5 min; linear gradient 4.0-16.0% B, 4.5-16.0 min; linear gradient 16.0-100% B, 16.0-25.0 min; isocratic elution of 100% B, 25.0-26.0 min; and linear gradient 100 to 0% B, 26.0-26.1 min, with a flow rate of 0.5 mL/min. Injection volume was 50 μL. All eluted peaks were detected at 279 nm with a diode array detector (SPD-M20A; Shimadzu, Kyoto, Japan).

[2] = Biliary excretion after intravenous administration in bile duct-cannulated rats; assay type: in vivo, Wistar ST rats
Description: as §1, with “University. After fasting, the rats were cannulated with a polyethylene tube (PE-50; 0.58 mm I.D., 0.965 mm O.D.) into the jugular vein, portal vein, or bile duct under anesthesia with isoflurane inhalation using a WP-SAA01 (LMS Co., Ltd., Tokyo, Japan). A small hole was made in the vein or duct using pointed scissors and cannulated with the polyethylene tube. After inserting the tube, it was fixed at the edge of the vein or duct. The jugular vein and portal vein cannulas penetrated under the skin and were then tied at the back of the rats, and the bile duct cannula was tied at the abdomen of the rats. Bile duct-cannulated rats were then restrained in a Bollman cage (Natsume Seisakusho Co., Ltd., Tokyo, Japan). Before further experiments, the rats were allowed to recover from anesthesia.” for “University.”

[3] = after oral administration, within 240 min

HT in urine [1, 3] | HVA in urine [1, 3] | HVAOH in urine [1, 3] | total excretion ratio including metabolites (3,4-DHPEA-EDA : HT : Ole) ([1]; urine after oral administration, Ole = 1) | Total metabolites (including intact compound) excreted in the urine ([1]; within 240 min after oral administration) | Detection of parent 3,4-DHPEA-EDA in bile [2] | HT in bile [2] | HVA in bile [2] | HVAOH in bile [2] | Ole in urine ([1]; after oral administration) | Ole in bile [2] | SMILES | Detection of 3,4-DHPEA-EDA in urine ([1]; after oral administration)
0.51 % of dose | 0.38 % of dose and 0.39 % of dose | not detected | 12.9 | 0.9% | not observed | 0.174 % of dose and 0.17 % of dose | 0.048 % of dose and 0.05 % of dose | 0.255 % of dose and 0.26 % of dose | – | – | CC=C(C=O)C(CC=O)CC(=O)OCCc1ccc(O)c(O)c1 (centres unmarked) [3,4-DHPEA-EDA, 3,4-dihydroxyphenylethyl elenolate dialdehydic form] | not observed; also recorded: not detected
1.14 % of dose | – | – | – | – | – | 0.079 % of dose | – | – | – | – | OCCc1ccc(O)c(O)c1 [Hydroxytyrosol, 2-(3,4-dihydroxyphenyl) ethyl alcohol, reference compound] | –
– | – | – | – | – | – | – | – | – | 0.07 % of dose | 3.22 % of dose | C/C=C1/[C@H](O[C@@H]2O[C@H](CO)[C@@H](O)[C@H](O)[C@H]2O)OC=C(C(=O)OC)[C@H]1CC(=O)OCCc1ccc(O)c(O)c1 [Oleuropein, reference compound] | –
